Entries after “also recorded” stand apart in the source; their conditions may differ.
Assays:
[1] = system: Aβ40; experiment: Secretion of Aβ40 by 751APPSW CHO cells (sandwich ELISA); type: cell-based; settings: 48 hr; for Emax: read-out: EMAX of Aβ40 production inhibition; for IC50: read-out: IC50% of Aβ40 production
Description: (§1) In addition to studying the effect of ARN4261 and ARN2966 on Aβ oligomerization and fibrillization, we have explored their properties in respect to the modulation of Aβ production using CHO clones stably transfected with WT human APP751 and double Swedish APP751 mutant (KM670/671NL). The results in FIGS. 3(A) and 3(B) show inhibitory effect of ARN4261 and ARN2966 on secretion of Aβ40 and Aβ42 by 751APPSW CHO cells exposed to ARN compounds for 48 hr. Values are expressed as % of Aβ40 and Aβ42 levels in conditioned media (CM) of untreated cells. FIG. 3(C) Concentrations of Aβ40 and Aβ42 in 751APPSWCHO cell CM under increasing concentrations of ARN2966. 751APPSWCHO cells secrete Aβ40 and Aβ42 in proportions 9:1, akin to the proportions of Aβ peptides produced by neurons. […] Aβ40 and Aβ42 levels were determined using sandwich ELISA where C-terminal specific anti Aβ40 and Aβ42 mAbs were used as capture Abs and biotinylated 4G8 as the detection Ab. […] We also confirmed that ARN2966 inhibited secretion of Aβ by primary neuronal cultures derived from Tg2576 AD Tg mice.

[2] = system: Aβ40; experiment: Aβ40 secretion by primary hippocampal neurons derived from Tg2576 AD Tg mice; type: cell-based; settings: 10 μM, primary neuronal cultures from Tg2576 mice
Description: as §1

[3] = system: APP mRNA; experiment: APP mRNA level in 751APPSW CHO cells; type: cell-based, human
Description: (§2) D. APP was immunoprecipitated with 22C11 mAb against its N-terminus. Representative radiographs (B) and densitometric results averaged from three independent experiments are shown (A). […] Two sets of experiments were conducted using either actin or GAPDH as housekeeping genes.

[4] = system: Aβ plaques; experiment: Aβ plaque load and brain Aβ level after chronic treatment; type: in vivo, mice
Description: Female APPSW/PS1dE9 AD double transgenic (Tg) mice received daily intraperitoneal injections of ARN2966 (50 mg/kg) starting from the age of six months until the age of 10 months.
Following the course of ARN2966 treatment, animals were sacrificed, and the load of Thioflavin-S (Th-S) stained Aβ plaques (% of histological section area covered by plaques) was quantified in the brain cortex on serial coronal sections through the rostrocaudal axis of the right hemisphere as described by us [Sadowski 2004]. The left hemisphere was homogenized (1:10 weight/volume), and aliquots of the homogenate were used to measure the level of Aβ oligomers (Aggregated β-Amyloid ELISA Kit, [Invitrogen]) or subjected to formic acid (FA) extraction to determine total Aβ40 and Aβ42 brain levels via sandwich ELISAs discriminating C-terminal configuration of both peptides as described by us [Sadowski 2006]. […] Levels of FA extracted Aβ40 and Aβ42 were reduced by 82% (p<0.001) and 56% (p<0.001; FIG. 6C).
FIGS. 6.(A, B) ARN2966 treatment reduces load of Aβ plaques (n=10 ARN2966, n=15 Vehicle). (B) Representative photomicrograph of Th-S stained brain sections from vehicle and ARN2966 treated 10 month old, female APPSW/PS1dE9reveal a difference in the load of Aβ plaques. […] (D) Reduced Aβ40 and Aβ42 levels in FA extracted brain homogenate, which represent the total brain content of Aβ peptides in ARN2966 treated animals (ELISA). (E) Reduced soluble Aβ40 level in DEA extracted brain homogenate, of ARN2966 and Compound E treated mice (ELISA). […] Aβ concentrations in (C) (D) and (E) are given per gram of wet brain. All values are given as mean±SEM. Statistical analysis was done using two-tailed unpaired t-test, following confirmation of normal distribution of data using Shapiro-Wilk test.

[5] = system: APP; experiment: 35S-Methionine pulse labeling of APP in 751APPSW CHO cells; type: cell-based, human
Description: as §2

[6] = system: Aβ42; experiment: Secretion of Aβ42 by 751APPSW CHO cells (sandwich ELISA); type: cell-based; settings: 48 hr; for Emax: read-out: EMAX of Aβ42 production inhibition; for IC50: read-out: IC50% of Aβ42 production
Description: as §1

[7] = Analysis of chemical structure stability; type: physicochemical
Source text: This is because of the instability of —C═N— bond. Therefore we have synthesized a reduced version of ARN4261dubbed ARN2966 (2-[(pyridine-2-ylmethyl)-amino]-phenol, MW 200.2 Da, Log P 1.96).

[8] = biological target: T1, Aβ40 (Homo sapiens, UniProt P05067); experiment: Oligomerization assay; type: biochemical
T1 construct: host or cells: chemical solid-phase peptide synthesis (no expression host)
T1 sequence (P05067 672-711): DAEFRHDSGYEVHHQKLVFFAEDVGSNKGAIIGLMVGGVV
Description: […] monomerized synthetic Aβ40 was incubated in 0.1M Tris pH 7.0, T=37° C. for 8 days in the presence of 0-100 μM concentration of compounds. […] An arrow indicates Aβ monomers clustered in ill developed protofibril. (C) Oligomerization assay. ARN4261 and ARN4224 reduced the amount of Aβ oligomers by 78% and 74%, respectively p<0.001. A compound 69b (GKLVFNmgA) was used as a positive control. 69b is homologous to Aβ sequence 17-21 and contains N-methyl glycine (Nmg), which renders it capable of anti-fibrillization and anti-oligomerization effect. (D) Principle of oligomerization assay. 100 μM Aβ40 was aggregated alone or with the addition of 10 μM of tested compounds [1:10 compound: Ab ratio] for 24 h in conditions promoting oligomers assembly, i.e., DMEM/F-12 medium+0.2% SDS, T=4° C. Prior to SDS-PAGE in non-reducing conditions samples were treated with glutaraldehyde. A strong smear of Aβ oligomers is seen between 37 and 70 KDa markers (arrows) in lane 2, and a dense band below the 25 KDa marker reflects Aβ monomers non-dissociated by 10% polyacrylamide gel. No oligomers above 37 KDa marker are seen in lane 1 containing only Aβ monomers run as a control. […] (E) TEM of Aβ oligomers. […] Yellow arrowhead indicates smaller oligomers.

[9] = 50 mg/kg/day ip, age six to ten months, ELISA

Oc1ccccc1NCc1ccccn1 [ARN2966, 2-[(pyridine-2-ylmethyl)-amino]-phenol]
Emax [1]: 97 ± 0.3%
IC50 [1]: 0.81 µM
lowering of Aβ40 concentration in the conditioned media [2]: 61.4%
APP mRNA level [3]: No change; also recorded: lack of substantial effect
reduction in the Aβ load (unbiased quantification, Thioflavin-S) ([4]; 50 mg/kg daily ip, age six to 10 months): 25.8%
reduction of load of Th-S positive plaques in the brain cortex ([4]; 50 mg/kg/day ip, age six to ten months): 21.9%
reduction of FA extracted Aβ40 brain level [4, 9]: 82%
reduction of FA extracted Aβ42 brain level [4, 9]: 56%
reduction of level of Aβ oligomers in brain homogenate [4, 9]: 20.5%
reduction of translation of APP ([5]; 25 μM, 2 h 35S-Methionine pulse): 61.5%
incorporation of 35S-Methionine by APP during translation ([5]; 751APPSW CHO cells): significantly reduced incorporation of 35S-Methionine by APP
translation of β-actin ([5]; 751APPSW CHO cells): remained unaltered
Emax [6]: 84.5%
IC50 [6]: 5.53 µM

Oc1ccccc1N=Cc1ccccn1 [ARN4261, 2-(Pyridin-2-ylmethyleneamino)-phenol]
Emax [1]: 97.4 ± 0.25%
IC50 [1]: 0.82 µM
APP mRNA level [3]: lack of substantial effect
chemical structure stability [7]: prone to self-decomposing
stability in acidic pH ([7]; acidic pH): easily degradable in acidic pH
TEM of Aβ oligomers [8]: increased number of Aβ monomers and dimers
reduction of the amount of Aβ oligomers ([8]; 100 μM Aβ40, 10 μM compound, 24 h, DMEM/F-12 + 0.2% SDS, 4° C.): 78%
amount of oligomers on SDS-PAGE ([8]; 100 μM Aβ40, 10 μM compound, 24 h, lanes 3-5): reduced amount of oligomers
Emax [6]: 98.9 ± 0.4%
IC50 [6]: 6.54 µM

From patent US8658677B2, “Pyridyl-2-methylamino compounds, compositions and uses thereof” (Aria Neurosciences Inc., priority 2011, dated 2014)
